Measured values as given in US8133905B2, “Biphenyl compounds useful as muscarinic receptor antagonists” (Theravance, Inc., priority 2005, dated 2012).
Counter-ions that a name gives are not always drawn.

Assay: Dynamic moisture sorption (DMS) assessment
Assay type: physicochemical
Settings: exposed to up to 90% RH
Experimental: A dynamic moisture sorption (DMS) assessment (also known as a moisture sorption-desorption profile) was performed for samples of the crystalline diacetate salt using a VTI atmospheric microbalance, SGA-100 system (VTI Corp., Hialeah, Fla. 33016). A sample size of approximately 10 mg was used and the humidity was set at the ambient value at the start of the analysis. A typical DMS analysis consisted of three scans: ambient to 2% relative humidity (RH), 2% RH to 90% RH, 90% RH to 5% RH at a scan rate of 5% RH/step. The mass was measured every two minutes and the RH was changed to the next value (+/−5% RH) when the mass of the sample was stable to within 0.01% for 5 consecutive points.

| weight gain in DMS trace (reversible sorption/desorption profile) | SMILES |
| --- | --- |
| less than 11% | CN(CCN1CCC(OC(=O)Nc2ccccc2-c2ccccc2)CC1)C(=O)c1cccc(C(=O)NCCNCc2ccc(O)cc2)c1 [crystalline dipropionate salt, Biphenyl-2-ylcarbamic Acid 1-[2-({3-[2-(4-Hydroxybenzylamino)ethylcarbamoyl]benzoyl}methylamino)ethyl]piperidin-4-yl Ester] |
| less than 18% | CN(CCN1CCC(OC(=O)Nc2ccccc2-c2ccccc2)CC1)C(=O)c1cccc(C(=O)NCCNCc2ccc(O)cc2)c1 [crystalline diacetate salt, biphenyl-2-ylcarbamic acid 1-[2-({3-[2-(4-hydroxybenzylamino)ethylcarbamoyl]benzoyl}methylamino)ethyl]piperidin-4-yl ester] |
| less than 14% | CN(CCN1CCC(OC(=O)Nc2ccccc2-c2ccccc2)CC1)C(=O)c1cccc(C(=O)NCCNCc2ccc(O)cc2)c1 [crystalline monooxalate salt, Biphenyl-2-ylcarbamic Acid 1-[2-({3-[2-(4-Hydroxybenzylamino)ethylcarbamoyl]benzoyl}methylamino)ethyl]piperidin-4-yl Ester] |
